Results on one compound are retold here after publication PMC7393338 (Acta Pharmacologica Sinica, 2020).

Broadly, the inhibition is the share of the control response that was lost under treatment.

The target of series [1] is SARS-CoV-2 PLpro (Severe acute respiratory syndrome coronavirus 2, UniProt P0DTD1). Put plainly: biochemical. The settings on record: read-out: PLpro Inhibition (%).
The conditions of series [2]: intratracheal administration versus other routes, rats.

For `O=c1cc(-c2ccccc2)oc2cc(O)c(O)c(O)c12` [Baicalein], the inhibition at 50 µM in series [1] was < 50%. The “target tissue (lung) distribution” value in series [2] was “significantly increase their target tissue distribution”.
